Experimental data taken from US20080139480A1, “Combination Of (A) N--4-(3- Pyridyl)-2-Pyrimidine-Amine And (B) At Least One Hypusination Inhibitor And The UseThereof” (priority 2003, published 2008).
“Also recorded” adds a separate entry of the source.

Assays:
Format in all cases: cell-based
[1] = tested on: Bcr-Abl-positive K562 cells; assay: Apoptosis, flow cytometric evaluation of hypodiploid nuclei; settings: ciclopirox 0 to 81 μM
Experimental: (§1) K562 and HL-60 (2×10^5 cells per well) are cultured in 24-well tissue plates under the conditions described above.
(§2) Briefly, nuclei are prepared by lysing cells in a hypotonic lysis buffer (1% sodium citrate, 0.1% Trition X-100, 50 μg propidium iodide per ml) and subsequently analyzed by flow cytometry. Nuclei to the left of the 2N peak containing hypodiploid DNA are considered as apoptotic. Flow cytometric analysis are performed on a FACScalibur (Becton Dickinson) using […] analysis software.
(§3) Apoptosis was also measured after 24 h by flow cytometric evaluation of hypodiploid nuclei as described in above Methods.

[2] = tested on: Bcr-Abl negative HL-60 cells; assay: as above; settings: ciclopirox 0 to 81 μM
Experimental: as §1, §2, §3

[3] = tested on: Bcr-Abl-negative HL-60 cells; assay: MTT assay, growth inhibition / cellular cytotoxicity; settings: ciclopirox 0 to 81 μM
Experimental: (§4) K562 cells were obtained from DSMZ (Bielefeld, Germany). HL-60 lines were kindly provided by Dr. Bühring (Tübingen, Germany). Both cell lines are cultured in RPMI 1640 medium (Gibco-BRL, Invitrogen, UK) containing 10% fetal calf serum (FCS) (Biochrom KG, Berlin, Germany). The cells are incubated at 37° C. in a humidified atmosphere with 5% CO2 in air.
(§5) K652 and HL-60 cells are plated into 96-well flat-bottomed microtiter plates (Becton Dickinson, Heidelberg, Germany) at 1.5×10^4 cells/well in 150 μl of their respective media.
(§6) All analyses are performed in triplicates. After 24 and 48 hours, the viable cells in each well are assayed for their ability to transform 3-(4,5-dimethylthiazol-2-yl)-2,5-diphenyltetrazolium bromide (MTT) into a purple formazan (Twentyman et al., Br. J. Haematol. 71, 19-24 (1989), Arnould et al., Anticancer Res. 10, 145-154 (1990)). Therefore, 10 μl of a 10 mg/ml MTT solution is added in each well. After an incubation period of 2 hours at 37° C., the purple formazan is released by adding lysis buffer (15% sodium dodecyl sulfate [SDS] in DMF/H2O 1:1, pH 4.5) and shaking overnight in the dark. The absorbance of the samples is measured on an enzyme-linked immunosorbent assay (ELISA) plate reader (Dynatech MR7000) at 570 nm. […]

[4] = tested on: Bcr-Abl positive K562 cells; assay: as above; settings: 24 h, ciclopirox 0 to 81 μM
Experimental: as §4, §5, §6

Cc1cc(C2CCCCC2)n(O)c(=O)c1 [ciclopirox, 6-cyclohexyl-1-hydroxy-4-methyl-2(1H)-pyridinone]
induction of apoptosis, single agent [1]: induces apoptosis | induction of apoptosis, single agent [2]: induces apoptosis | cell viability, single agent [3]: inhibits cell viability | growth inhibition / cell viability, single agent [4]: inhibits cell viability; also recorded: anti-proliferative effect was detected
